{"source": "patent US12636282B1", "about": "(priority 2020, dated 2026)", "origin": "cited, not measured here", "key": {"[1]": {"test_system": "influenza", "settings": "NAC 600 mg twice a day for 6 months; 79% with placebo"}, "[2]": {"test_system": "lethal influenza infections", "settings": "mice, lethal influenza infection"}, "[3]": {"test_system": "Coxackievirus B", "settings": "in vivo; through suppressing viral replication and inflammatory responses"}, "[4]": {"test_system": "COVID-19", "settings": "early uncontrolled study"}}, "note": "Read-outs that look alike come from different tables or passages of the source."}
{"compound": "CCN(CCO)CCCC(C)Nc1ccnc2cc(Cl)ccc12", "note": "(stereo not drawn) [HCQ, hydroxychloroquine]", "values": [{"measurement": "Retinal toxicity, share of patients", "setting": "after 6 years of HCQ use", "value": 1.8, "unit": "%"}, {"measurement": "Retinal toxicity, share of patients", "setting": "after 11 years of HCQ use", "value": 3.3, "unit": "%"}, {"measurement": "Retinal toxicity, share of patients", "setting": "after 16 years of HCQ use", "value": 11.5, "unit": "%"}]}
{"compound": "CC(=O)N[C@@H](CS)C(=O)O", "note": "[NAC, N-acetyl cysteine]", "values": [{"measurement": "virus-infected subjects developing flu symptoms", "setting": "[1]", "value": 25, "unit": "%"}, {"measurement": "Survival", "setting": "[2]", "value": 20, "unit": "%"}, {"measurement": "Coxackievirus B-induced myocarditis", "setting": "[3]", "value": "effectively alleviates"}]}
{"compound": "CCOC(=O)C1=C[C@@H](OC(CC)CC)[C@H](NC(C)=O)[C@@H](N)C1", "note": "[oseltamivir]", "values": [{"measurement": "Survival", "setting": "[2]", "value": 60, "unit": "%"}]}
{"compound": "Tocilizumab: interleukin 6 (IL-6) receptor antibody", "values": [{"measurement": "fever", "setting": "[4]", "value": "rapidly reduction in fever"}, {"measurement": "oxygenation", "setting": "[4]", "value": "improvement in oxygenation"}]}
